Like-named read-outs stand apart in the source and are kept apart here.

Broadly, the amount remaining is what is left of the initial amount, in per cent. One may read the IC50 as the concentration that gives 50% inhibition.

Data set [1] can be described thus: Intestinal microbiota stability, mouse. The data set is classed as in vitro ADME. As to the method:
Plasma from mice, rats, rabbits, and humans was obtained from blood after centrifugation at 3000 r/min for 10 min. Simulated gastric fluid (SGF, pH = 1, containing pepsin) and simulated intestinal fluid (SIF, pH = 6.8, containing trypsin) were configured previously in the experiments. SD rats and mice were collected, and after removing the mucus layer from the small intestine and colon, 20 times the volume of liquid bacterial culture medium was added. An intestinal microbiota suspension was obtained after anaerobic cultivation on a shaking table at 37 °C for 12 h. In the aforementioned systems, E3 was added at a final concentration of 1 μmol/L at 37 °C for different incubation times (0, 10, 20, 30, 60, 120, and 240 min). In liver metabolic stability assays, E3 was incubated with liver microsomes or liver homogenate from mice or rats for 60 min at 37 °C. The stop solution, 5 ng/mL tolbutamide (internal standard, IS) in acetonitrile, was added to stop the metabolic process. Post-centrifugation (18,000× g, 10 min, 4 °C), supernatants were subjected to liquid chromatography–tandem mass spectrometry (LC–MS/MS). Analyte-to-IS peak area ratios quantified residual percentages via Equation (2):Remaining% = (E3peak area/ISpeak area at different time)/(E3peak area/ISpeak area at 0 min) × 100%.(2)

In data set [2] the target is T1, UT-B (Homo sapiens, UniProt Q13336).
T1 construct: endogenous in cells; host or cells: erythrocytes from healthy adult male volunteers
T1 sequence (Q13336 1-389): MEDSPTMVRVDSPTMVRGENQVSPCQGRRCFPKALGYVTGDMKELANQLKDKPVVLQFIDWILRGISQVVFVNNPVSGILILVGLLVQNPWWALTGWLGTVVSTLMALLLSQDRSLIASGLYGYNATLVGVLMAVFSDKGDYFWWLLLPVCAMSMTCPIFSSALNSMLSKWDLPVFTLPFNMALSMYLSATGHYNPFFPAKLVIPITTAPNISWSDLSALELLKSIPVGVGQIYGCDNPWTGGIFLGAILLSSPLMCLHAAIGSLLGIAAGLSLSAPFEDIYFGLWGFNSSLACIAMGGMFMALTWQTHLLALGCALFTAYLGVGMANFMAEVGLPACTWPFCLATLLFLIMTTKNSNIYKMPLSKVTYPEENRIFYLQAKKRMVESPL
In words: Erythrocyte lysis assay for UT-B inhibition, human erythrocytes. The class given is cell-based. As to the method: The erythrocyte lysis assay was modified from a method described previously. Erythrocytes obtained from veins were diluted to a hematocrit value of 2% in hyperosmolar PBS containing 1.25 mol/L urea and 5 mmol/L glucose and incubated at r.t. for 2 h. Then, 99 μL erythrocyte suspension from a reservoir was added to each well of a 96-well round-bottom microplate, then 1 μL of the testing compound (500, 125, 31.25, 7.81, 1.95, 0.488, 0.122, 0.031, 0.0076 μmol/L dissolved in DMSO) was added to erythrocyte suspension and shook it up with microoscillator for 1 min. Following 5 min incubation, 20 μL erythrocyte suspension was transferred into 96-well black microplates preloaded with 180 μL isotonic PBS (10 mM, urea-free). Erythrocyte lysis was monitored at 710 nm optical density (OD710) for 6 min, with lysis rates calculated using control values from the same plate as Equation (1):Lysis (%) = 100 × (Aneg − Atest)/(Aneg − Apos)(1) where Atest is the absorbance value from the test well, Aneg is from a negative no-lysis control well, and Apos is from a positive full-lysis control.

Data set [3] has as its target T2, rat UT-A1 (Rattus norvegicus, UniProt Q62668).
T2 construct: expressed in transfected cells
T2 sequence (Q62668 1-929): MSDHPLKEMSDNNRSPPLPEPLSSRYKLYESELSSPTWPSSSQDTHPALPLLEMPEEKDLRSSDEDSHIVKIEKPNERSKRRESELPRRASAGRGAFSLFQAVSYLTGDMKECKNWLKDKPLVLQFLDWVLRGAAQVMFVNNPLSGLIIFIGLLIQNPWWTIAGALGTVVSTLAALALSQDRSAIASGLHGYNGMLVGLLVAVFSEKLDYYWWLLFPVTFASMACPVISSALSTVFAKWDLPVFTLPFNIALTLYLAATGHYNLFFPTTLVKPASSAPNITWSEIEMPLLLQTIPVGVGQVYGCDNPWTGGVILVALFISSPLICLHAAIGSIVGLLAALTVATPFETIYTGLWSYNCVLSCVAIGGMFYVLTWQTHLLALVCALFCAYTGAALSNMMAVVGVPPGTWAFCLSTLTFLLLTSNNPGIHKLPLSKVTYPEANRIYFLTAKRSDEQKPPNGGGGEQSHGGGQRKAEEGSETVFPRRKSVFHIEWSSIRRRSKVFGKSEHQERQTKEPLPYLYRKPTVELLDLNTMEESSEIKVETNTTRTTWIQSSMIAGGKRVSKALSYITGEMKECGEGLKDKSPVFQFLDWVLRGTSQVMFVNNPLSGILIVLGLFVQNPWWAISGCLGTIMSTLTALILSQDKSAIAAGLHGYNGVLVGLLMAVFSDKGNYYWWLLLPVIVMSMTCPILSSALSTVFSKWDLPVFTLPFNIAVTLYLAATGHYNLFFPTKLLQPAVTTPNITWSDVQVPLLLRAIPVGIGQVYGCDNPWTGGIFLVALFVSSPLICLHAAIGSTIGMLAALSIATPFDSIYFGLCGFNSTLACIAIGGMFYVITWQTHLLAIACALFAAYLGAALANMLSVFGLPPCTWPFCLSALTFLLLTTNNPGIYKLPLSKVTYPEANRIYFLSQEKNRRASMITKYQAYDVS
In words: Transwell assay of UT-A1 inhibition in UT-A1-MDCK cells. The class given is cell-based. Particulars: read-out: IC50 against UT-A1-mediated urea permeability. How it is done:
MDCK cells stably expressing rat UT-A1 or UT-B were cultured in DMEM supplemented with 10% FBS, and the mRNA levels of UT-A1 and UT-B were measured in our previous research. Urea flux was assessed according to previously established methods. MDCK cells (2 × 10^5 cells/cm^2) were grown on 12 mm collagen-coated Costar Transwell inserts (0.4 μm pore size, Corning) for 4 d at 37 °C in the presence of 5% CO2. Once the cells on the apical side formed a tight monolayer (transepithelial resistance 1 kΩ/cm^2), PBS (pH = 7.4, containing 10 μmol/L forskolin) with E3 or DMSO was added to the top (0.25 mL) and bottom (1 mL) compartments, and the cultures were incubated in the absence of urea for 30 min at 37 °C. As UT-B is located in the plasma membrane while UT-A1 resides in the cytoplasm, forskolin was used to stimulate the translocation of UT-A1 from the cytoplasm to the membrane for urea transport. Subsequently, the solution in the bottom compartment was replaced with PBS (pH 7.4, containing 10 μmol/L forskolin and E3 or DMSO) supplemented with 15 mmol/L urea. Apical fluid samples (5 μL) were collected at 0, 1, 3, 5, 10, 15, 20, 30, 40, 50, and 60 min. The samples were subjected to an assay for urea (Urea Colorimetric Assay Kit (Diacetyl Oxime Method), Elabscience, Wuhan, China) according to the kit procedure. Then, the inhibition rate was calculated as described previously.

For `CC(=O)c1ccc(C(=O)Nc2cccc(NS(=O)(=O)c3ccccc3)c2)o1` [Compound E3, 5-acetyl-N-(3-(phenylsulfonamido)phenyl)furan-2-carboxamide], the amount remaining at 4 h, 1 μmol/L in data set [1] (colon microbiota suspension, n=3, read-out: Mouse colon microbiota (remaining %)) stood at 89.3%; in data set [1] (small intestine microbiota suspension, n=3, read-out: Mouse small intestine microbiota (remaining %)), 87.3%. Further, the “maximum inhibition rate, human cells” value in data set [2] (erythrocyte lysis assay) was “approximately 100%”. For the same compound, the IC50 in data set [2] (red blood cell lysis assay, read-out: IC50 for UT-B-promoted urea transport, humans) amounted to 25 nM; in data set [3], 18 nM.

Source of the values: article PMC12024912, “Druggability Studies of Benzene Sulfonamide Substituted Diarylamide (E3) as a Novel Diuretic” (Biomedicines, 2025).
